Consider 22 compounds from PMC11847391, “Synthesis and biological activities of 3-aminoimidazo[1,2-α]pyridine compounds” (BMC Chemistry, 2025).

Data set [1] has as its system MCF-7 human breast cancer cell line. The data set can be described thus: Cytotoxicity, Trypan blue exclusion test, MCF-7. Format: cell-based. Particulars: for IC50: MCF-7, 24 h, Trypan blue exclusion, mean ± SD of two independent experiments. The procedure:
(§1) The synthesized compounds were assessed for their cytotoxic effects on three different cancer cell lines: the MCF-7 human breast cancer cell line (ATCC number: HTB-22), the HT-29 human colorectal adenocarcinoma cell line [HTB-38; American Type Culture Collection (ATCC), Manassas, VA, USA], and the B16F10 murine melanoma cancer cell line [CRL-6475; American Type Culture Collection (ATCC), Manassas, VA, USA], as well as the normal cell line mouse Embryonic Fibroblast-1 cell line (MEF-1; ATCC CRL-2214). The cell line was cultivated in high-glucose Dulbecco’s Modified Eagle Medium (DMEM) that is supplemented with L-glutamine, phenol red (Fuji Film Wako, Osaka, Japan), 10% fetal bovine serum (FBS; G.E. Healthcare, Chicago, IL, USA), and 1% penicillin/streptomycin (P/S) (Nacalai Tesque, Kyoto, Japan). Exponentially growing cells (1 × 10^5 cells/well) were seeded in a 24-well plate with sterile-filtered DMEM medium at 37 °C under 5% CO2 and incubated overnight. The cells were then treated with different concentrations of test compounds (5, 10, 50, and 100 µg/mL) and incubated for 24 h in a humidified atmosphere. After 24 h of incubation, viable cells were counted in each well using the Trypan blue exclusion test. All compounds were initially dissolved in DMSO, and the final concentration of DMSO was less than 1% in all of the considered concentrations of the applied compounds. The IC50 values from at least two independent experiments were compared with the control and expressed as the mean ± SD. The analysis of two groups was performed using the student t-test, and P-values < 0.05 were statistically significant.

Data set [2] relates to HT-29 human colorectal adenocarcinoma cell line. As to the kind of experiment: Cytotoxicity, Trypan blue exclusion test, HT-29. Particulars: for IC50: HT-29, 24 h, Trypan blue exclusion, mean ± SD of two independent experiments. Format: cell-based. The procedure:
as §1

Data set [3] has as its system B16F10 murine melanoma cancer cell line. As to the kind of experiment: Cytotoxicity, Trypan blue exclusion test, B16F10. Format: cell-based. To be noted: for IC50: B16F10, 24 h, Trypan blue exclusion, mean ± SD of two independent experiments. The procedure: as §1
Data set [4] has as its system mouse Embryonic Fibroblast-1 cell line (MEF-1). As to the kind of experiment: Cytotoxicity, Trypan blue exclusion test, normal MEF cells. Format: cell-based. Particulars: for IC50: normal cell line MEF, 24 h, Trypan blue exclusion, mean ± SD of two independent experiments. The procedure: as §1
The subject of data set [5] is HT-29 cell line. The data set can be described thus: Morphological changes of treated HT-29 cells. Format: cell-based, human. Particulars: high concentrations (≥ 50 µg/ml), versus untreated cancer cells. The source says:
(§2) In comparison to the control (untreated cancer cells), the three cancer cell lines (MCF-7, HT-29, and B16F10) were investigated for morphological changes after being treated with the synthesized compounds 9–19.

For data set [6], the system named is B16F10 cell line. The data set can be described thus: Morphological changes of treated B16F10 cells. It is filed as cell-based, murine. Particulars: high concentrations (≥ 50 µg/ml), versus untreated cancer cells.
Source text: as §2

Usually IC50 stands for the midpoint of a concentration-inhibition curve. Lower therefore signals inhibition by little substance.

Consider `COc1ccc(-c2nc3ccccn3c2Nc2ccc(Cl)cc2)c(OC)c1OC` [C00001], for which the IC50 in data set [1], in data set [2], in data set [3] and in data set [4] was over 200 µM each time.

Consider `COc1ccc(-c2nc3ccccn3c2Nc2ccc(Cl)cc2)cc1OCc1ccccc1` [C00002], for which the IC50 was over 200 µM in data set [1], over 200 µM in data set [2], over 200 µM in data set [3] and 18.5 ± 0.33 µM in data set [4].

`Clc1ccc(Nc2c(-c3c[nH]c4ccccc34)nc3ccccn23)cc1` [C00003]: the IC50 was 20.47 ± 0.1 µM in data set [1], 18.3 ± 1.22 µM in data set [2], 39.2 ± 1.84 µM in data set [3] and 1.84 ± 0.83 µM in data set [4].

On to `Clc1ccc(Nc2c(-c3ccco3)nc3ccccn23)cc1` [C00005], for which the IC50 was 66.5 ± 37.9 µM in data set [1], 48.3 ± 0.53 µM in data set [2], 197 ± 14.4 µM in data set [3] and 32.93 ± 0.09 µM in data set [4].

As to `Cc1cccc(-c2nc3ccccn3c2Nc2ccc(Cl)cc2)c1` [C00006], half-maximal inhibition in data set [1] (IC50) required 195 ± 19.9 µM.

In the case of `COc1cccc(-c2nc3ccccn3c2Nc2ccc(Cl)cc2)c1OC` [C00007], the IC50 in data set [1], in data set [2], in data set [3] and in data set [4] was over 200 µM throughout.

With `Clc1ccc(Nc2c(-c3ccc4ccccc4c3)nc3ccccn23)cc1` [C00008], the IC50 in data set [3] and in data set [4] was over 200 µM in each case.

For `Clc1ccc(Nc2c(-c3ccsc3)nc3ccccn23)cc1` [C00009], the IC50 in data set [1], in data set [2], in data set [3] and in data set [4] was over 200 µM throughout.

As to `Fc1ccc(-c2nc3ccccn3c2Nc2ccc(Cl)cc2)c(F)c1` [C00010], the IC50 in data set [2] worked out at 10.1 ± 0.7 µM; in data set [3] it was 14.39 ± 0.04 µM; in data set [4], 16.31 ± 0.08 µM.

As to `FC(F)(F)c1ccc(-c2nc3ccccn3c2Nc2ccc(Cl)cc2)cc1` [C00011], the 50% inhibitory concentration (IC50) in data set [1] is over 200 µM; in data set [2] it was 85.5 ± 18.8 µM; in data set [3], 195 ± 15.3 µM; in data set [4], 63.9 ± 2.33 µM.

In the case of `COc1ccc(-c2nc3ccccn3c2Nc2ccc(Cl)cc2)c(OC)c1OC` [Compound 9, N-(4-chlorophenyl)−2-(2,3,4-trimethoxyphenyl)imidazo[1,2-a]pyridin-3-amine], in data set [1], the “Cytotoxicity against MCF-7 (in words)” value is on record as “ineffective”. Besides, in data set [2], the “Cytotoxicity against HT-29 (in words)” value is on record as “ineffective”. Moreover, the “Cytotoxicity against B16F10 (in words)” value in data set [3] is “ineffective”.

In the case of `COc1ccc(-c2nc3ccccn3c2Nc2ccc(Cl)cc2)cc1OCc1ccccc1` [Compound 10, 2-(3-(Benzyloxy)−4-methoxyphenyl)-N-(4-chlorophenyl)imidazo[1,2-a]pyridin-3-amine], the “Cytotoxicity against MCF-7 (in words)” value in data set [1] is on record as “ineffective”. In data set [2], the “Cytotoxicity against HT-29 (in words)” value is recorded as “ineffective”. The “Cytotoxicity against B16F10 (in words)” value in data set [3] was “ineffective”.

For the compound `Clc1ccc(Nc2c(-c3c[nH]c4ccccc34)nc3ccccn23)cc1` [Compound 11, N-(4-chlorophenyl)−2-(1 H-indol-3-yl)imidazo[1,2-a]pyridin-3-amine], the half-maximal inhibitory concentration (IC50) was 20.47 ± 0.1 µM in data set [1] (Homo sapiens, MCF7, 24 h); 18.3 ± 1.22 µM in data set [2] (Homo sapiens); 39.2 ± 1.84 µM in data set [3] (Mus musculus, B16-F10, 24 h); 1.84 ± 0.83 µM in data set [4] (Mus musculus, MEF); under 1.84 µM in data set [4].

On to `O=[N+]([O-])c1ccccc1-c1nc2ccccn2c1Nc1ccc(Cl)cc1` [Compound 12, N-(4-chlorophenyl)−2-(2-nitrophenyl)imidazo[1,2-a]pyridin-3-amine], for which the IC50 worked out at 30.9 ± 14.4 µM in data set [1] (Homo sapiens, MCF7, 24 h); 4.15 ± 2.93 µM in data set [2] (Homo sapiens); 64.8 ± 15.8 µM in data set [3] (Mus musculus, B16-F10, 24 h); 40.5 ± 4.34 µM in data set [4] (Mus musculus, MEF). In addition, the “Cytotoxicity against normal cells relative to HT-29 (fold lower)” value in data set [4] (MEF IC50 versus HT-29 IC50) is on record as “tenfold”. In addition, in data set [5], the “Morphological changes, HT-29” value is “shrinkage and lost their original form”. In addition, in data set [6], the “Morphological changes, B16F10” value was “shrinkage and lost their original form”.

As for `Clc1ccc(Nc2c(-c3ccco3)nc3ccccn23)cc1` [Compound 13, N-(4-chlorophenyl)−2-(furan-2-yl)imidazo[1,2-a]pyridin-3-amine], the IC50 in data set [1] (Homo sapiens, MCF7, 24 h) is 66.5 ± 37.9 µM; in data set [1] it was over 45 µM; in data set [2], over 45 µM; in data set [2] (Homo sapiens), 48.3 ± 0.53 µM; in data set [4] (Mus musculus, MEF), 32.93 ± 0.09 µM.

Take `Cc1cccc(-c2nc3ccccn3c2Nc2ccc(Cl)cc2)c1` [Compound 14, N-(4-chlorophenyl)−2-(m-tolyl)imidazo[1,2-a]pyridin-3-amine]: the IC50 was 44.45 ± 0.15 µM in data set [2] (Homo sapiens); 21.8 ± 0.81 µM in data set [3] (Mus musculus, B16-F10, 24 h); over 200 µM in data set [4] (Mus musculus, MEF). Besides, the “Morphological changes, HT-29” value in data set [5] was “shrinkage and lost their original form”. In addition, the “Morphological changes, B16F10” value in data set [6] is “shrinkage and lost their original form”.

As to `COc1cccc(-c2nc3ccccn3c2Nc2ccc(Cl)cc2)c1OC` [Compound 15, N-(4-chlorophenyl)−2-(2,3-dimethoxyphenyl)imidazo[1,2-a]pyridin-3-amine], the “Cytotoxicity against MCF-7 (in words)” value in data set [1] was “ineffective”. The “Cytotoxicity against HT-29 (in words)” value in data set [2] is reported as “ineffective”. Also, the “Cytotoxicity against B16F10 (in words)” value in data set [3] is reported as “ineffective”.

As to `Clc1ccc(Nc2c(-c3ccc4ccccc4c3)nc3ccccn23)cc1` [Compound 16, N-(4-chlorophenyl)−2-(naphthalen-2-yl)imidazo[1,2-a]pyridin-3-amine], the IC50 in data set [1] (Homo sapiens, MCF7, 24 h) was 84 ± 3.37 µM; in data set [2] (Homo sapiens), 93.08 ± 0.61 µM. In addition, the “Cytotoxicity against B16F10 (in words)” value in data set [3] was “inactive”.

For the compound `Clc1ccc(Nc2c(-c3ccsc3)nc3ccccn23)cc1` [Compound 17, N-(4-chlorophenyl)−2-(thiophen-3-yl)imidazo[1,2-a]pyridin-3-amine], in data set [1], the “Cytotoxicity against MCF-7 (in words)” value is on record as “ineffective”. Moreover, the “Cytotoxicity against HT-29 (in words)” value in data set [2] is on record as “ineffective”. For the same compound, in data set [3], the “Cytotoxicity against B16F10 (in words)” value is on record as “ineffective”.

As for `Fc1ccc(-c2nc3ccccn3c2Nc2ccc(Cl)cc2)c(F)c1` [Compound 18, N-(4-chlorophenyl)−2-(2,4-difluorophenyl)imidazo[1,2-a]pyridin-3-amine], the IC50 is 14.8 ± 0.2 µM in data set [1] (Homo sapiens, MCF7, 24 h); under 15 µM in data set [1]; under 15 µM in data set [2]; 10.1 ± 0.7 µM in data set [2] (Homo sapiens); under 15 µM in data set [3]; 14.39 ± 0.04 µM in data set [3] (Mus musculus, B16-F10, 24 h). The IC50 in data set [4] (Mus musculus, MEF) amounted to 16.31 ± 0.08 µM.

In the case of `FC(F)(F)c1ccc(-c2nc3ccccn3c2Nc2ccc(Cl)cc2)cc1` [Compound 19, N-(4-chlorophenyl)−2-(4-(trifluoromethyl)phenyl)imidazo[1,2-a]pyridin-3-amine], the IC50 was at least 200 µM in data set [1] (Homo sapiens, MCF7, 24 h); 85.5 ± 18.8 µM in data set [2] (Homo sapiens); at least 200 µM in data set [3] (Mus musculus, B16-F10, 24 h); 63.9 ± 2.33 µM in data set [4] (Mus musculus, MEF).

Turning to `CC(=O)O[C@H]1C(=O)[C@@]2(C)[C@H]([C@H](OC(=O)c3ccccc3)[C@]3(O)C[C@H](OC(=O)[C@H](O)[C@@H](NC(=O)c4ccccc4)c4ccccc4)C(C)=C1C3(C)C)[C@]1(OC(C)=O)CO[C@@H]1C[C@@H]2O` [Paclitaxel (Taxol), Paclitaxel, reference compound], the half-maximal inhibitory concentration (IC50) in data set [1] (Homo sapiens, MCF7, 24 h) is 0.00834 µM; in data set [2] (Homo sapiens), 0.0166 µM; in data set [3] (Mus musculus, B16-F10, 24 h) it was 55.7 µM; in data set [4] (Mus musculus, MEF), 17.2 µM.
